Data from patent US7223759B2, “Antibacterial 3,5-diaminopiperidine-substituted aromatic and heteroaromatic compounds” (Anadys Pharmaceuticals, Inc., priority 2003, dated 2007).
Where two headings read alike, the source gives them in different places.

Tested on: Escherichia coli (ATCC25922) or Staphylococcus aureus (ATCC25923)
Test: Antibacterial MIC, microdilution method in Mueller-Hinton medium
Type: cell-based
Conditions: for MIC: Escherichia coli, 18 h, read-out: Potency (MIC)
How it was run: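 Read after 18 h incubation at 35° C, MIC is the lowest compound level that blocked growth. Compounds were tested in duplicate over 64–0.5 μg/ml two-fold dilutions using Mueller-Hinton microdilution per NCCLS standard.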

[1] = MIC in E. coli or S. aureus, two-fold serial dilutions 64 to 0.5 μg/ml in duplicate, 18 hours of incubation at 35° C.

| Compound | MIC | MIC [1] | also measured |
| --- | --- | --- | --- |
| NCCNc1nc(Nc2ccc(NC(=O)c3ccc4ccccc4c3O)cc2)nc(N2C[C@H](N)C[C@H](N)C2)n1 [1-Hydroxy-naphthalene-2-carboxylicacid {4-[4-(2-amino-ethylamino)-6-((3R,5S)-3,5-diamino-piperidin-1-yl)-[1,3,5]triazin-2-ylamino]-phenyl}-amide] | < 16 µg/mL | – | – |
| Cc1cc(=O)oc2cc(Nc3nc(N4C[C@H](N)C[C@H](N)C4)nc(N4C[C@@H](N)[C@@H](N)C4)n3)ccc12 [7-[4-((3R,5S)-3,5-diamino-piperidin-1-yl)-6-((3R,4S)-3,4-diamino-pyrrolidin-1-yl)-[1,3,5]triazin-2-ylamino]-4-methyl-chromen-2-one] | > 64 µg/mL | – | – |
| N[C@@H]1C[C@H](N)CN(c2nc(Nc3ccc(NC(=O)c4ccc(F)c(F)c4O)c(O)c3)nc(N3C[C@H](N)C[C@H](N)C3)n2)C1 [N-[4-(3,4-difluoro-2-hydroxy-benzoylamino)-3-hydroxy-phenyl]-4,6-Bis-((3R,5S)-3,5-diamino-piperidin-1-yl)-[1,3,5]triazine-2-amine] | < 64 µg/mL | – | – |
| N[C@@H]1C[C@H](N)CN(c2nc(NCCNc3ccc([N+](=O)[O-])cn3)nc(N3C[C@H](N)C[C@H](N)C3)n2)C1 [N-[2-(5-nitro-pyridin-2-ylamino)-ethyl]-4,6-Bis-((3R,5S)-3,5-diamino-piperidin-1-yl)-[1,3,5]triazine-2-amine] | > 64 µg/mL | – | – |
| N[C@@H]1C[C@H](N)CN(c2nc(Nc3ccc(NC(=O)c4cnc5ccccc5n4)c(O)c3)nc(N3C[C@H](N)C[C@H](N)C3)n2)C1 [N-{3-hydroxy-4-[(quinoxaline-2-carbonyl)-amino]-phenyl}-4,6-Bis-((3R,5S)-3,5-diamino-piperidin-1-yl)-[1,3,5]triazine-2-amine] | – | < 64 µg/mL | – |
| Cc1c(Cl)cccc1CNc1nc(N2C[C@H](N)C[C@H](N)C2)nc(N2C[C@H](N)C[C@H](N)C2)n1 [N-(3-chloro-2-methyl-benzyl)-4,6-Bis-((3R,5S)-3,5-diamino-piperidin-1-yl)-[1,3,5]triazine-2-amine] | > 64 µg/mL | – | – |
| COc1nc(Nc2ccc(C(=O)CC(=O)Nc3ccccc3Cl)cc2)nc(N2C[C@H](N)C[C@H](N)C2)n1.Cl [N-(2-Chloro-phenyl)-3-{4-[4-((3R,5S)-3,5-diamino-piperidin-1-yl)-6-methoxy-[1,3,5]triazin-2-ylamino]-phenyl}-3-oxo-propionamide] | – | < 16 µg/mL | – |
| N[C@@H]1C[C@H](N)CN(c2nc(Nc3ccc(C(=O)CC(=O)Nc4cccc(Cl)c4)cc3)nc(N3C[C@H](N)C[C@H](N)C3)n2)C1 [N-{4-[2-(3-chloro-phenylcarbamoyl)-acetyl]-phenyl}-4,6-Bis-((3R,5S)-3,5-diamino-piperidin-1-yl)-[1,3,5]triazine-2-amine] | < 16 µg/mL | – | – |
| Cc1ccc(C(=O)Nc2ccc(Nc3nc(N4CC(N)C4)nc(N4C[C@H](N)C[C@H](N)C4)n3)cc2O)cc1.Cl [N-{4-[4-(3-Amino-azetidin-1-yl)-6-((3R,5S)-3,5-diamino-piperidin-1-yl)-[1,3,5]triazin-2-ylamino]-2-hydroxy-phenyl}-4-methyl-benzamide] | – | < 64 µg/mL | – |
| Cl.NC(=O)[C@H](CO)Nc1nc(N2C[C@H](N)C[C@H](N)C2)nc(N2C[C@H](N)C[C@H](N)C2)n1 [(S)-2-[4-((3R,5S)-3,5-Diamino-piperidin-1-yl)-6-((3S,5R)-3,5-diamino-piperidin-1-yl)-[1,3,5]triazin-2-ylamino]-3-hydroxy-propionamide] | – | > 64 µg/mL | – |
| CC(=O)c1ccc(Nc2nc(N3C[C@H](N)C[C@H](N)C3)nc(N3C[C@@H](N)C[C@@H](O)C3)n2)cc1 [1-{4-[4-((3S,5R)-3-Amino-5-hydroxy-piperidin-1-yl)-6-((3R,5S)-3,5-diamino-piperidin-1-yl)-[1,3,5]triazin-2-ylamino]-phenyl}-ethanone] | – | > 64 µg/mL | – |
| CN(C)c1cccc(Nc2nc(N3C[C@H](N)C[C@H](N)C3)nc(N3C[C@H](N)C[C@H](N)C3)n2)c1 [N-(3-dimethylamino-phenyl)-4,6-Bis-((3R,5S)-3,5-diamino-piperidin-1-yl)-[1,3,5]triazine-2-amine] | > 64 µg/mL | – | – |
| CCn1c2ccccc2c2cc(Nc3nc(N4C[C@H](N)C[C@H](N)C4)nc(N4C[C@H](N)C[C@H](N)C4)n3)ccc21 [N-(9-ethyl-9H-carbazol-3-yl)-4,6-Bis-((3R,5S)-3,5-diamino-piperidin-1-yl)-[1,3,5]triazine-2-amine] | < 64 µg/mL | – | – |
| C=Cc1ccc(Nc2nc(N3C[C@H](N)C[C@H](N)C3)nc(N3C[C@H](N)C[C@H](N)C3)n2)cc1 [N-(4-vinyl-phenyl)-4,6-Bis-((3R,5S)-3,5-diamino-piperidin-1-yl)-[1,3,5]triazine-2-amine] | < 64 µg/mL | – | – |
| NCCN(CCN)c1nc(Nc2ccc3c(c2)-c2ccccc2C3=O)nc(N2C[C@H](N)C[C@H](N)C2)n1 [3-[4-[Bis(2-amino-ethyl)-amino]-6-((3R,5S)-3,5-diamino-piperidin-1-yl)-[1,3,5]triazin-2-ylamino]-fluoren-9-one] | > 64 µg/mL | – | – |
| Cc1cc(Nc2nc(N3C[C@H](N)C[C@H](N)C3)nc(N3C[C@H](N)C[C@H](N)C3)n2)no1.Cl [N-(5-methyl-isoxazol-3-yl)-4,6-Bis-((3R,5S)-3,5-diamino-piperidin-1-yl)-[1,3,5]triazine-2-amine] | – | > 64 µg/mL | – |
| Cl.O=C(Nc1ccc(Nc2nc(N3CCCCC3)nc(N3CCCCC3)n2)cc1)c1ccc2ccccc2c1O [1-Hydroxy-naphthalene-2-carboxylic acid {4-[4-((3S,5R)-3,5-diamino-piperidin-12-yl)-6-((3R,5R)-3,5-dihydroxy-piperidin-1-yl)-[1,3,5]triazin-2-ylamino]-phenyl}-amide] | – | < 64 µg/mL | – |
| Cc1cc(Nc2nc(N3C[C@H](N)C[C@H](N)C3)nc(N3C[C@H](N)C[C@H](N)C3)n2)ccc1NC(=O)c1cc2cccc(O)c2cc1O [N-{4-[(3,5-dihydroxy-naphthalene-2-carbonyl)-amino]-3-methyl-phenyl]-4,6-Bis-((3R,5S)-3,5-diamino-piperidin-1-yl)-[1,3,5]triazine-2-amine] | – | < 64 µg/mL | – |
| N#Cc1ccc(NC(=O)c2ccc(Nc3nc(N4C[C@H](N)C[C@H](N)C4)nc(N4C[C@H](N)C[C@H](N)C4)n3)cc2O)cc1 [N-[4-(4-cyano-phenylcarbamoyl)-3-hydroxy-phenyl]-4,6-Bis-((3R,5S)-3,5-diamino-piperidin-1-yl)-[1,3,5]triazine-2-amine] | < 64 µg/mL | – | – |
| Cl.NCCN(CCN)c1nc(Nc2ccc(C(=O)Oc3ccccc3)c([N+](=O)[O-])c2)nc(N2CCCCC2)n1 [4-[4-[Bis-(2-amino-ethyl)-amino]-6-((3R,5S)-3,5-diamino-piperidin-1-yl)-[1,3,5]triazin-2-ylamino]-2-hydroxy-benzoic acidphenyl ester] | – | < 64 µg/mL | – |
| N[C@@H]1C[C@H](N)CN(c2nc(NC3CCCNC3)nc(N3C[C@H](N)C[C@H](N)C3)n2)C1 (stereo partly drawn) [N-piperidin-3-yl-4,6-Bis-((3R,5S)-3,5-diamino-piperidin-1-yl)-[1,3,5]triazine-2-amine] | – | > 64 µg/mL | – |
| N[C@@H]1C[C@H](N)CN(c2nc(Nc3ccc(NC(=O)c4cccc(Br)c4)c(O)c3)nc(N3C[C@H](N)C[C@H](N)C3)n2)C1 [N-[4-(3-bromo-benzoylamino)-3-hydroxy-phenyl]-4,6-Bis-((3R,5S)-3,5-diamino-piperidin-1-yl)-[1,3,5]triazine-2-amine] | < 16 µg/mL | – | – |
| N-(4-acetylamino-3,5-dichloro-phenyl)-4,6-Bis-0((3R,5S)-3,5-diamino-piperidin-1-yl)-[1,3,5]triazine-2-amine | – | – | Potency (MIC) [1]: − (− means MIC>64 μg/ml in E. coli or S. aureus) |
| CN(c1nc(N2C[C@H](N)C[C@H](N)C2)nc(N2C[C@H](N)C[C@H](N)C2)n1)C1CCN(Cc2ccccc2)C1 (stereo partly drawn) [N-(1-Benzyl-pyrrolidin-3-yl)-N-methyl-4,6-Bis-((3R,5S)-3,5-diamino-piperidin-1-yl)-[1,3,5]triazine-2-amine] | < 64 µg/mL | – | – |
| COc1ccc(C(=O)Nc2ccc(Nc3nc(N4C[C@H](N)C[C@H](N)C4)nc(N4C[C@H](N)C[C@H](N)C4)n3)cc2O)c(O)c1OC [N-[3-hydroxy-4-(2-hydroxy-3,4-dimethoxy-benzoylamino)-phenyl]-4,6-Bis-((3R,5S)-3,5-diamino-piperidin-1-yl)-[1,3,5]triazine-2-amine] | < 64 µg/mL | – | – |
| NC[C@H]1[C@@H](O)CCN1c1nc(Nc2ccc(C(=O)Oc3ccccc3)c(O)c2)nc(N2C[C@H](N)C[C@H](N)C2)n1 [4-[4-((2S,3S)-2-Aminomethyl-3-hydroxy-pyrrolidin-1-yl)-6-((3R,5S)-3,5-diamino-piperidin-1-yl)-[1,3,5]triazin-2-ylamino]-2-hydroxy-benzoic acidphenylester] | – | – | Potency (MIC) [1]: − (− means MIC>64 μg/ml in E. coli or S. aureus) |
| Cl.N[C@@H]1C[C@H](N)CN(c2nc(Nc3ccc4[nH]cnc4c3)nc(N3C[C@H](N)C[C@H](N)C3)n2)C1 [N-(1H-benzoimidazol-5-yl)-4,6-Bis-((3R,5S)-3,5-diamino-piperidin-1-yl)-[1,3,5]triazine-2-amine] | – | < 64 µg/mL | – |
| COc1ccc(O)c(C(=O)Nc2ccc(Nc3nc(N4C[C@H](N)C[C@H](N)C4)nc(N4C[C@H](N)C[C@H](N)C4)n3)cc2)c1 [N-[4-(2-hydroxy-5-methoxy-benzoylamino)-phenyl]-4,6-Bis-((3R,5S)-3,5-diamino-piperidin-1-yl)-[1,3,5]triazine-2-amine] | < 64 µg/mL | – | – |
| N[C@@H]1C[C@H](N)CN(c2nc(Nc3ccc(S(=O)(=O)Nc4ccc5cn[nH]c5c4)cc3)nc(N3C[C@H](N)C[C@H](N)C3)n2)C1 [N-[4-(1H-indazol-6-ylsulfamoyl)-phenyl]-4,6-Bis-((3R,5S)-3,5-diamino-piperidin-1-yl)-[1,3,5]triazine-2-amine] | – | > 64 µg/mL | – |
| N[C@@H]1C[C@H](N)CN(c2nc(Nc3ccc(S(N)(=O)=O)cc3)nc(N3C[C@H](N)C[C@H](N)C3)n2)C1 [N-(4-sulfamoyl-phenyl)-4,6-Bis-((3R,5S)-3,5-diamino-piperidin-1-yl)-[1,3,5]triazine-2-amine] | > 64 µg/mL | – | – |
